{
  "source": "patent US20250093329A1",
  "about": "“SCREENING OF COMPOUNDS” (THE UNIVERSITY OF TULSA, priority 2022, published 2025)",
  "test_system": "H293",
  "assay": "Cytotoxicity testing, CellTiter-Blue assay, 24 hour (FIG. 3)",
  "type": "cell-based",
  "conditions": "100 μM, 24 hour compound incubation",
  "protocol": "The cytotoxicity tests were carried out in the following manner. Living cells are known to convert resazurin to the fluorescent compound resorufin. Test systems which rely upon this reaction are commercially available. One such test is known at the Cell Titer Blue Cell Viability test assay from Promega. Cell cultures for each of the identified cancer lines were obtained from ATCC and maintained in Dulbecco's Modified Eagle Medium (DMEM) supplemented with 10% fetal bovine serum (FBS) and pen/strep. As known to those skilled in the art, DMEM typically includes the components identified below.\nThe test method provides for incubating the cell cultures at temperatures which correspond to the range of body temperatures experienced by the patient from which the cancer cells were obtained. Typically, incubation temperatures will be between the temperatures of 36.1° C. and 37.2° C. In most cases incubation will occur at 37° C. Additionally, the cell cultures are kept under an atmosphere which mimics cell conditions of the tumor within the patient's body. In most cases, the tumor microenvironment (TME) is characterized by hypoxia (low oxygen) and may also be characterized by hypercapnia (increased CO2). Hypercapnia results from decreased blood flow which limits CO2 elimination. Restricted CO2 elimination leads to increased HCO3^− conversion to CO2 in order to neutralize lactate as altered tumor cell metabolism produces more CO2 than normal. Normal tissue averages about 5% oxygen with oxygen ranges from about 3% to 7.4%. […] In the case of CO2, normocapnic is around 5% CO2, while hypercapnic can rise to 10% CO2. Therefore, to mimic the environment of the tumor the method utilizes an incubator designed to provide the optimal gaseous environment corresponding to that of the tumor. Thus, the incubator will be capable of maintaining an atmosphere having an oxygen content in the range of […] and a CO2 in the range of 1% to 10%.\nAfter allowing for proliferation of the cells, the cells were distributed across a plurality of test wells containing from 100 μL DMEM plus 10% FBS and allowed to attach to the surface of the test wells. Typically, the time for attachment will require about 12 hours to about 18 hours. […] Following treatment of the cells with the N-benzyl sulfonamide or control, the toxicity of the compound to the cells will be determined by addition of a luminescing agent. […] Subsequently, the fluorescence of resazurin is measured by excitation at 560 nm and recording the emission at 590 nm within an instrument configured to measure fluorescence intensity. Two commercially available systems are the BioTek Cytation 5 plate reader and the Promega Glomax Multi+detection system. […]",
  "data": [
    {"compound": "O=S(=O)(NCc1c[nH]c2ccccc12)c1ccc(Cl)cc1", "note": "[Compound 2, N-[(1H-indol-3-yl)methyl]-4-chlorobenzenesulfonamide]", "values": [
      {"measurement": "effectiveness, percent reduction in cell viability (FIG. 3)", "result": "effective"}
    ]}
  ]
}
